The values below come from patent US8716292B2, “Riminophenazines with 2-(heteroaryl)amino substituents and their anti-microbial activity” (priority 2010, dated 2014).

In series [1] the test system is Mycobacterium tuberculosis H37Rv strains. Nature of the series: In vitro assay for antimicrobial susceptibility (microplate Alamar blue MIC). Conditions: Mycobacterium tuberculosis, H37RV, in vitro, Mycobacterium tuberculosis H37Rv strains; read-out: MIC (μg/mL) against H37Rv. The format is cell-based.
A further series deals with H37Rv. Description: In vivo testing: mice infected intravenously with H37Rv, lung tissue CFU counts. The following applies: thirty days postinfection; for Log CFU (TBI treated): 20 mg/kg, gavage 5 times weekly, lung tissue CFU; for log reduction at 20 mg/kg: Mycobacterium tuberculosis, H37RV, iv, 720 h, versus untreated control, lung tissue, read-out: Log CFU Reduction (TBI treated). More on the design: species or system Male BALB/c mice. On the procedure: Male BALB/c mice (18˜20 g) were infected intravenously with 0.2 ml portions containing 1×10^5 CFU of H37Rv. One day after the infection, four mice were sacrificed and the numbers of CFU in the spleens and lungs were determined. Organs were removed and homogenized in Middlebrook 7H9 broth. To enumerate CFU, appropriate dilutions of the homogenates were plated onto Middlebrook 7H10 agar and colonies were counted after 3 to 4 weeks of incubation at 37° C. The remaining mice were allocated either to untreated groups or to various drug treated groups (six mice per group). The dose of every test compound was 20 mg/kg. The positive control groups were treated by isoniazid and clofazimine. The test compounds and clofazimine were administered by gavage 5 times weekly. Untreated mice were administered by gavage with CMC. Thirty days postinfection, both untreated and treated mice were sacrificed and lung tissue CFU counts were determined. The significance of the CFU count and organ weight difference was assessed by a two-tailed Student t test. P≦0.01 was considered significant.

Values after ≈ are worked out from the molar mass of the structure shown.

Regarding `COc1ncccc1Nc1cc2nc3ccccc3n(-c3ccc(Cl)cc3)c-2c/c1=N\C1CCC(OC)CC1` (stereo not drawn) [TBI-444, 5-(4-Chlorophenyl)-3-(4-methoxycyclohexyl)imino-2-(2-methoxy-3-pyridyl)amino-3,5-dihydrophenazine], the MIC in series [1] came out at 0.016 µg/mL (≈ 0.0296 µM). Moreover, in the series on H37Rv, the “Log CFU (TBI treated)” value turned out to be 4.71 and the log reduction at 20 mg/kg was determined as 3.82.
`CN1CCC(/N=c2\cc3n(-c4ccc(Cl)cc4)c4ccccc4nc-3cc2Nc2cccnc2)CC1` [TBI-427, 5-(4-Chlorophenyl)-3-(N-methyl-4-piperidyl)imino-2-(3-pyridyl)amino-3,5-dihydrophenazine] registered a melting point of 198 to 200 °C. Also, the MIC in series [1] is 0.125 µg/mL (≈ 0.253 µM).
The compound `CC(C)/N=c1\cc2n(-c3cccc(F)c3)c3ccccc3nc-2cc1Nc1cccnc1` [TBI-522, 5-(3-Fluorophenyl)-3-(1-methylethyl)imino-2-(3-pyridyl)amino-3,5-dihydrophenazine] showed a melting point of 164 to 166 °C. For the same compound, the MIC in series [1] stood at 0.062 µg/mL (≈ 0.146 µM).
With `CN1CCC(C/N=c2\cc3n(-c4ccc(Cl)cc4)c4ccccc4nc-3cc2Nc2cccnc2)CC1` [TBI-428, 5-(4-Chlorophenyl)-3-(N-methyl-4-piperidylmethyl)imino-2-(3-pyridyl)amino-3,5-dihydrophenazine], the melting point was in the range of 188 to 190 °C. In addition, in series [1], the MIC is 0.25 µg/mL (≈ 0.491 µM).
The matching figures for `COc1ncccc1Nc1cc2nc3ccccc3n(-c3ccc(Br)cc3)c-2c/c1=N\C1CC1` [TBI-519, 5-(4-Bromophenyl)-3-cyclopropylimino-2-(2-methoxy-3-pyridyl)amino-3,5-dihydrophenazine]: 217 to 218 °C and 0.015 µg/mL (≈ 0.0293 µM).
Take `COc1ncccc1Nc1cc2nc3ccccc3n(-c3ccc(F)cc3)c-2c/c1=N\C1CCC(OC)CC1` (stereo not drawn) [TBI-1002, 5-(4-Fluorophenyl)-3-(4-methoxycyclohexyl)imino-2-(2-methoxy-3-pyridyl)amino-3,5-dihydrophenazine]: in series [1], the MIC stood at 0.016 µg/mL (≈ 0.0306 µM). Further, in the series with H37Rv, the “Log CFU (TBI treated)” value is recorded as 4.85 and the log reduction at 20 mg/kg was 3.68.
The matching figures for `COC1CCC(/N=c2\cc3n(-c4ccc(Cl)cc4)c4ccccc4nc-3cc2Nc2ccc(C)nc2)CC1` (stereo not drawn) [TBI-450, 5-(4-Chlorophenyl)-3-(4-methoxycyclohexyl)imino-2-(6-methyl-3-pyridyl)amino-3,5-dihydrophenazine]: 0.016 µg/mL (≈ 0.0305 µM), 3.64 and 4.89.
The like results for `FC(F)(F)Oc1ccc(-n2c3c/c(=N\C4CCOCC4)c(Nc4cccnc4)cc-3nc3ccccc32)cc1` [TBI-161, 5-(4-Trifluoromethoxyphenyl)-3-(4-tetrahydropyranyl)imino-2-(3-pyridyl)amino-3,5-dihydrophenazine] were, in that order, 0.03 µg/mL (≈ 0.0564 µM), 6.05 and 2.77.
The like results for `COc1ncccc1Nc1cc2nc3ccccc3n(-c3ccc(F)cc3)c-2c/c1=N\C1CC1` [TBI-1010, 5-(4-Fluorophenyl)-3-cyclopropylimino-2-(2-methoxy-3-pyridyl)amino-3,5-dihydrophenazine] were, in that order, 0.011 µg/mL (≈ 0.0244 µM), 4.86 and 3.67.
Consider `COc1ncccc1Nc1cc2nc3ccccc3n(-c3ccc(OC(F)(F)F)cc3)c-2c/c1=N\C1CCC(OC)CC1` (stereo not drawn) [TBI-166, 5-(4-Trifluoromethoxyphenyl)-(4-methoxycyclohexyl)imino-2-(2-methoxy-3-pyridyl)amino-3,5-dihydrophenazine], for which, in series [1], the MIC came out at 0.016 µg/mL (≈ 0.0271 µM). In the series on H37Rv, the “Log CFU (TBI treated)” value stood at 4.66 and the log reduction at 20 mg/kg was 3.87.
The like results for `CC(C)/N=c1\cc2n(-c3ccc(Cl)cc3)c3ccccc3nc-2cc1Nc1cccnc1` [TBI-416, 5-(4-chlorophenyl)-3-(1-methylethyl)imino-2-(3-pyridyl)amino-3,5-dihydrophenazine] were, in that order, 0.03 µg/mL (≈ 0.0682 µM), 3.83 and 4.7.
Regarding `COc1ncccc1Nc1cc2nc3ccccc3n(-c3ccc(F)cc3)c-2c/c1=N\C(C)C` [TBI-1004, 5-(4-Fluorophenyl)-3-(1-methylethyl)imino-2-(2-methoxy-3-pyridyl)amino-3,5-dihydrophenazine], in the series on H37Rv, the “Log CFU (TBI treated)” value was 4.28 and the log reduction at 20 mg/kg was determined as 4.25.
As to `Cc1ccc(Nc2cc3nc4ccccc4n(-c4ccc(Cl)cc4)c-3c/c2=N\C2CCOCC2)cn1` [TBI-449, 5-(4-Chlorophenyl)-3-(4-tetrahydropyranyl)imino-2-(6-methyl-3-pyridyl)amino-3,5-dihydrophenazine], the MIC in series [1] was 0.03 µg/mL (≈ 0.0605 µM). Moreover, in the series with H37Rv, the “Log CFU (TBI treated)” value was 3.87 and the log reduction at 20 mg/kg came to 4.66.
The matching figures for `COc1ncccc1Nc1cc2nc3ccccc3n(-c3ccc(Cl)cc3)c-2c/c1=N\C1CCOCC1` [TBI-443, 5-(4-chlorophenyl)-3-(4-tetrahydropyranyl)imino-2-(2-methoxy-3-pyridyl)amino-3,5-dihydrophenazine]: 0.016 µg/mL (≈ 0.0312 µM), 5.13 and 3.4.
The matching figures for `COC1CCC(/N=c2\cc3n(-c4ccc(C(F)(F)F)cc4)c4ccccc4nc-3cc2Nc2cccnc2)CC1` (stereo not drawn) [TBI-688, 5-(4-Trifluoromethylphenyl)-3-(4-methoxycyclohexyl)imino-2-(3-pyridyl)amino-3,5-dihydrophenazine]: 0.03 µg/mL (≈ 0.0552 µM), 5.99 and 2.83.
Turning to `Cc1ccc(-n2c3c/c(=N\C4CCC(O)CC4)c(Nc4cncc(C)c4)cc-3nc3ccccc32)cc1` (stereo not drawn) [TBI-337, 5-(4-Methylphenyl)-3-(4-hydroxycyclohexyl)imino-2-(5-methyl-3-pyridyl)amino-3,5-dihydrophenazine], in series [1], the MIC stood at 0.452 µg/mL (≈ 0.923 µM).
Same read-out and setting: with `COC1CCC(/N=c2\cc3n(-c4ccccc4)c4ccccc4nc-3cc2Nc2ccc(C)nc2)CC1` (stereo not drawn) [TBI-072, 5-Phenyl-3-(4-methoxycyclohexyl)imino-2-(6-methyl-pyridyl)amino-3,5-dihydrophenazine] the figure was 0.091 µg/mL (≈ 0.186 µM); with `COc1ncccc1Nc1cc2nc3ccccc3n(-c3ccc(C)cc3)c-2c/c1=N\C1CCC(OC)CC1` (stereo not drawn) [TBI-309, 5-(4-Methylphenyl)-3-(4-methoxycyclohexyl)imino-2-(2-methoxy-3-pyridyl)amino-3,5-dihydrophenazine], 0.06 µg/mL (≈ 0.115 µM); with `Cc1ccc(Nc2cc3nc4ccccc4n(-c4ccc(C(F)(F)F)cc4)c-3c/c2=N\C2CCOCC2)cn1` [TBI-696, 5-(4-Trifluoromethylphenyl)-3-(4-tetrahydropyranyl)imino-2-(6-methyl-3-pyridyl)amino-3,5-dihydrophenazine], 0.032 µg/mL (≈ 0.0604 µM).
Take `CC(=O)Nc1ccc(Nc2cc3nc4ccccc4n(-c4ccc(C(F)(F)F)cc4)c-3c/c2=N\C2CCCCC2)cn1` [TBI-713, 5-(4-Trifluoromethylphenyl)-3-cyclohexylimino-2-(6-acetamino-3-pyridyl)amino-3,5-dihydrophenazine]: the MIC in series [1] is 0.022 µg/mL (≈ 0.0386 µM).
Consider `Cc1ccc(-n2c3c/c(=N\C4CCC(O)CC4)c(Nc4cccnc4C)cc-3nc3ccccc32)cc1` (stereo not drawn) [TBI-335, 5-(4-Methylphenyl)-3-(4-hydroxycyclohexyl)imino-2-(2-methyl-3-pyridyl)amino-3,5-dihydrophenazine], for which the MIC in series [1] came to 0.336 µg/mL (≈ 0.686 µM).
The same measure, in the same setting: then `Brc1ccc(-n2c3c/c(=N\C4CCC4)c(Nc4cccnc4)cc-3nc3ccccc32)cc1` [TBI-098, 5-(4-Bromophenyl)-3-cyclobutylimino-2-(3-pyridyl)amino-3,5-dihydrophenazine], with 0.028 µg/mL (≈ 0.0564 µM); and `Cc1ncccc1Nc1cc2nc3ccccc3n(-c3ccccc3)c-2c/c1=N\C1CCCCC1` [TBI-077, 5-Phenyl-3-cyclohexylimino-2-(2-methyl-3-pyridyl)amino-3,5-dihydrophenazine], with 0.016 µg/mL (≈ 0.0348 µM).
As for `CC(C)/N=c1\cc2n(-c3ccc(C(F)(F)F)cc3)c3ccccc3nc-2cc1Nc1cccnc1` [TBI-678, 5-(4-Trifluoromethylphenyl)-3-(1-methylethyl)imino-2-(3-pyridyl)amino-3,5-dihydrophenazine], the MIC in series [1] is 0.03 µg/mL (≈ 0.0634 µM). In the series with H37Rv, the “Log CFU (TBI treated)” value is 5.82 and the log reduction at 20 mg/kg came to 3.
On to `CSc1ccc(-n2c3c/c(=N\C(C)C)c(Nc4cccnc4)cc-3nc3ccccc32)cc1` [TBI-456, 5-(4-Methylthiophenyl)-3-(1-methylethyl)imino-2-(3-pyridyl)amino-3,5-dihydrophenazine], for which the MIC in series [1] came to 0.05 µg/mL (≈ 0.111 µM).
Same read-out and setting: then `CO[C@H]1CC[C@H](/N=c2\cc3n(-c4ccc(F)cc4)c4ccccc4nc-3cc2Nc2ccc(C)nc2)CC1` [TBI-907, 5-(4-Fluorophenyl)-3-(1′,4′-trans-4-methoxycyclohexyl)imino-2-(6-methyl-3-pyridyl)amino-3,5-dihydrophenazine], with 0.063 µg/mL (≈ 0.124 µM).
Still for that read-out and setting: with `COC1CCC(/N=c2\cc3n(-c4ccc(C(F)(F)F)cc4)c4ccccc4nc-3cc2Nc2ccc(NC(C)=O)nc2)CC1` (stereo not drawn) [TBI-715, 5-(4-Trifluoromethylphenyl)-3-(4-methoxycyclohexyl)imino-2-(6-acetamino-3-pyridyl)amino-3,5-dihydrophenazine] the figure was 0.06 µg/mL (≈ 0.0999 µM).
